Test results from patent US6294537A, “Compounds which are specific antagonists of the human NK3 receptor and their use as medicinal products and diagnostic tools” (Sanofi-Synthelabo, priority 1999, dated 2001).
Residues, ends and D or L forms follow the SMILES beside them. No end group written: not given here.

Legend:
rat NK3 receptor [1] = conditions: Patent Application EP 512901; read-out: Ki, antagonizes the binding of eledoisin; cited from earlier work
[2] = biological target: T1, NK3 receptors of rat cerebral cortex (Rattus norvegicus, UniProt P16177); test: Binding of [125I]His[MePhe7]NKB to NK3 receptors of rat cerebral cortex; conditions: read-out: inhibition constant Ki, rat NK3 receptor
T1 construct: NK3 receptors of rat cerebral cortex; from tissue; host or cells: rat cerebral cortex
T1 sequence (P16177 1-452): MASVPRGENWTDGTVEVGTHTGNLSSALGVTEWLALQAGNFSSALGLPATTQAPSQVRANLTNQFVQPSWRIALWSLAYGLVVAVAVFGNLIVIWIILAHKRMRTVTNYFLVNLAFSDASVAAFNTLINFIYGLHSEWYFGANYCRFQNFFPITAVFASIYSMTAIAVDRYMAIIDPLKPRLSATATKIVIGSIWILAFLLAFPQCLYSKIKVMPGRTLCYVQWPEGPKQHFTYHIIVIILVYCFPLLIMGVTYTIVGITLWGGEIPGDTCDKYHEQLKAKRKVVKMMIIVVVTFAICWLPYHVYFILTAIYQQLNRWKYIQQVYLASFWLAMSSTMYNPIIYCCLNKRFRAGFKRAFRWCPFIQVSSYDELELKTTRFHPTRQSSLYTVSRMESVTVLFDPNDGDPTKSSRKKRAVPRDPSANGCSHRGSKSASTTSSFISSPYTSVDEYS
Protocol: (§1) The affinity of the compounds of formula (I') for the tachykinin receptors was evaluated in vitro by several biochemical assays using radioligands:
(§2) 3) The binding of [^125 I]His[MePhe^7 ]NKB to the NK3 receptors of rat cerebral cortex, of guinea pig cerebral cortex and of gerbil cerebral cortex as well as to the cloned human NK3 receptors expressed by CHO cells (Buell et al., FEBS Letters, 1992, 299, 90-95).
(§3) The assays were carried out according to X. Emonds-Alt et al. (Eur. J. Pharmacol., 1993, 250, 403-413).

human NK3 receptor = biological target: T2, human NK3 receptor (Homo sapiens, UniProt P29371); test: Binding of [125I]His[MePhe7]NKB to cloned human NK3 receptors expressed by CHO cells; conditions: for Ki: cloned human NK3 receptors expressed by CHO cells, read-out: inhibition constant Ki, human NK3 receptor; for selectivity / specificity for the human NK3 receptor: from Ki at human NK3 versus rat NK2/NK1 receptors
T2 construct: expressed in transfected cells; host or cells: CHO cells
T2 sequence (P29371 1-465): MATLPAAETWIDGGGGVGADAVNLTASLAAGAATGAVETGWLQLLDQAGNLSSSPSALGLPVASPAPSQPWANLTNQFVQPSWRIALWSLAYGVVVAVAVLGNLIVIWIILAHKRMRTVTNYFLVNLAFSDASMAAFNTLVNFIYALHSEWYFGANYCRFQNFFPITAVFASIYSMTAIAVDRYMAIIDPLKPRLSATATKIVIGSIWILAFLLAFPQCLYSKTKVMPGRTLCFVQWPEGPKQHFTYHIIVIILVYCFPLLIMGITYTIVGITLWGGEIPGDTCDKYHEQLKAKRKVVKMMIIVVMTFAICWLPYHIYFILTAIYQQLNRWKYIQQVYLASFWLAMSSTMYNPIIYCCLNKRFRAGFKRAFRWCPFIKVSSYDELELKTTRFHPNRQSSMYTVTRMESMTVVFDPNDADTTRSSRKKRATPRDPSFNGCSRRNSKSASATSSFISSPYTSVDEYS
Protocol: as §1, §2, §3

[3] = biological target: T3, NK2 receptor of rat duodenum (Rattus norvegicus, UniProt P16610); test: Binding of [125I]His-NKA to NK2 receptors of rat duodenum; conditions: read-out: inhibition constant Ki, rat duodenum NK2 receptor
T3 construct: NK2 receptors of rat duodenum; from tissue; host or cells: rat duodenum
T3 sequence (P16610 1-390): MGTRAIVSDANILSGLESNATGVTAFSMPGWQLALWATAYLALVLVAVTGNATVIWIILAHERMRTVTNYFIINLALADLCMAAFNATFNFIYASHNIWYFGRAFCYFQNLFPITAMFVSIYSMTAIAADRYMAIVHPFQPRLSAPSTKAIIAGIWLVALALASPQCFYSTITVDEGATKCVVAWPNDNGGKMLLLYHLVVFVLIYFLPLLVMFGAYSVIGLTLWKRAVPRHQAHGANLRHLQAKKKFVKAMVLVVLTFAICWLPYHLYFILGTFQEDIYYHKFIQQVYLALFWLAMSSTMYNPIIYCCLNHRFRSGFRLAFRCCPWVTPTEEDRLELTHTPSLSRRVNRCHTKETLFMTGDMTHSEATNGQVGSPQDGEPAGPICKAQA
Protocol: as §1
2) The binding of [^125 I]His-NKA to the NK2 receptors of rat duodenum or of guinea pig ileum.
as §3

[4] = biological target: T4, NK1 receptors of rat cortex (Rattus norvegicus, UniProt P14600); test: Binding of [125I]BH-SP to NK1 receptors of rat cortex; conditions: read-out: inhibition constant Ki, rat cortex NK1 receptor
T4 construct: NK1 receptors of rat cortex; from tissue; host or cells: rat cortex
T4 sequence (P14600 whole entry): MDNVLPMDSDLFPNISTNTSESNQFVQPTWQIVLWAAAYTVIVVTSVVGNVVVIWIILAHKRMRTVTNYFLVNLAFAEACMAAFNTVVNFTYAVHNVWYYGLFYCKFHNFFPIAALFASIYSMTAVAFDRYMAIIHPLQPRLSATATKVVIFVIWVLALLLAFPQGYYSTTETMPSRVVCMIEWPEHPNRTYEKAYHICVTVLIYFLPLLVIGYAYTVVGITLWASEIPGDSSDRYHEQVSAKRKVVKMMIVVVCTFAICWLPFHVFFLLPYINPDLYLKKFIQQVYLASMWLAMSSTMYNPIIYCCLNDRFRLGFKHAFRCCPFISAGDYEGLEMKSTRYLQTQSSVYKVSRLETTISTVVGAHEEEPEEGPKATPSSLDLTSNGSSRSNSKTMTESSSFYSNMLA
Protocol: as §1
1) The binding of [^125 I]BH-SP (substance P labeled with iodine 125 with the aid of the Bolton-Hunter reagent) to the NK1 receptors of rat cortex, of guinea pig ileum and of human lymphoblastic cells.
as §3

rat NK3 receptor [5] = conditions: literature, J. Autonomic Pharmacol. 1993; cited from earlier work
NK3 receptor [6] = test: Hypertension induced in guinea pigs by intravenous or intracerebroventricular senktide; format: in vivo; conditions: guinea pig; intravenous or intracerebroventricular injection
Protocol: (§4) The compounds according to the present invention were also evaluated in vivo on two animal models.

NK3 receptor [7] = test: Rotating behavior induced in gerbils by intrastriatal senktide; format: in vivo; conditions: gerbil; unilateral application in the striatum
Protocol: as §4

Row | Molecule | Ki (human NK3 receptor) | selectivity / specificity for the human NK3 receptor (human NK3 receptor) | Ki [3] | other results
1 | Cl.O=C1CCC(CCN2CCC(O)(c3ccccc3)CC2)(c2ccc(Cl)c(Cl)c2)CN1Cc1ccccc1 (stereo not drawn) [compound A, 5-[2-(4-hydroxy-4-phenylpiperid-1-yl)ethyl]-5-(3,4-dichlorophenyl)-1-benzylpiperid-2-one hydrochloride] | 1 nM | not selective | 0.1 nM | Ki (rat NK3 receptor [1]): 200 nM; Ki [2]: 100 nM
2 | CN(CC(CCCN1CCC(O)(c2ccccc2)CC1)c1ccc(Cl)c(Cl)c1)C(=O)c1ccccc1.Cl (stereo not drawn) [Example 1, N-Methyl-N-[2-(3,4-dichlorophenyl)-5-(4-hydroxy-4-phenylpiperid-1-yl)pentyl]benzamide hydrochloride] | 5 nM | high specificity | 500 nM | Ki [4]: 500 nM
3 | [Trp^7, Ala^8 ]NKA: A peptide antagonist, weakly specific for rat NK3 receptor (HKTDSFWALM; ends and bridges not checked; UniProt P20366 98-107, looked up, variant V7W G8A) | – | – | – | specificity for rat NK3 receptor (rat NK3 receptor [5]): weakly specific
4 | CSCC[C@H](NC(=O)[C@H](CC(C)C)NC(=O)CNC(=O)[C@H](Cc1ccccc1)N(C)C(=O)[C@H](Cc1ccccc1)NC(=O)[C@H](CC(=O)O)NC(=O)CCC(=O)O)C(N)=O [senktide] (HELM PEPTIDE1{[O=C(O)CCC(=O)[*:2]].D.F.[meF].G.L.M.[am]}$$$$V2.0) | – | – | – | hypertension induced by senktide (NK3 receptor [6]): induces a hypertension; contralateral rotations induced by senktide (NK3 receptor [7]): strong contralateral rotations
